Measurements reported in US11814519B2, “Nitric oxide-releasing 3D-printing compositions and uses thereof” (Virginia Commonwealth University, priority 2020, dated 2023).

How the values were obtained:
[1] = Optical images of a thin printed layer of donor-loaded silicone rubber soaked in phosphate buffered saline-EDTA (dissolution of donor particles); assay type: physicochemical; details: thin printed layer soaked in PBSE
Method: FIG. 4A-C is optical images of a thin layer of S-nitroso-N-acetylpenicillamine-doped silicone rubber before soaking (A) and after 24 h (B) and 48 h (C) of soaking in phosphate buffered saline-EDTA.
FIG. 7A-C is bright-field optical images of a thin layer of S-nitrosoglutathione-loaded silicon rubber before and after soaking in phosphate buffered saline-EDTA.

[2] = Solubility of the NO donor in solvents and in the silicone ink; assay type: physicochemical; details: silicone ink ingredients
[3] = cited from earlier work

SMILES	time required for dissolution of donor particles in the thin printed layer ([1]; optical images) [days]	solubility in the silicone rubber ink [2]	solvents in which the donor is soluble [3]	time for dissolution of donor particles in the thin printed layer ([1]; optical images (FIG. 7))	water solubility relative to SNAP ([3]; water)
CC(=O)N[C@H](C(=O)O)C(C)(C)SN=O (racemic) [SNAP, S-nitroso-N-acetylpenicillamine]	3	not dissolved in the ink ingredients	most soluble in organic solvents such as methanol and tetrahydrofuran	–	–
N[C@@H](CCC(=O)N[C@@H](CSN=O)C(=O)NCC(=O)O)C(=O)O [GSNO, S-nitrosoglutathione]	–	not soluble	only appreciably dissolved in water and DMSO	dissolved within a day	much higher
